Data set [1] in a line: Liver Microsome Stability Assay (rat). To be noted: rat liver microsomes, with NADPH, 1.0 uM compound. A general note: Liver microsomes are vesicles of endoplasmic reticulum, rich in cytochrome P450 enzymes.
Protocol: (§2) Stability of a compound was assessed in the presence of liver microsomes from various sources—mouse, rat, monkey and human liver microsomes. 1.0 uM compound, 0.4% DMSO in 0.1 M Potassium Phosphate with 1.0 mg/mL liver microsomes, were incubated at 37° C. with or without 1 mM NADPH. The samples were quenched at 0, and 30 minutes.
Data set [2] in a line: Liver Microsome Stability Assay (mouse). Particulars: mouse liver microsomes, with NADPH, 1.0 uM compound.
Protocol: as §2
Data set [3] is described as follows: Liver Microsome Stability Assay (human). Particulars: human liver microsomes, with NADPH, 1.0 uM compound.
Protocol: as §2
A short description of data set [4]: Liver Microsome Stability Assay (monkey). To be noted: monkey liver microsomes, with NADPH, 1.0 uM compound.
Protocol: as §2
The subject of data set [5] is PD1-ss+10aa/Gaussia Luciferase. As to the kind of experiment: Dox-Induced PD1-ss-Gluc Assay. The class given is cell-based. Particulars: 24 hr Dox induction, 293FRT/TO cells, read-out: 24 hr Dox Inducible PD1ssGluc 293FRT/TO: Mean IC50. The text has this:
Flp-In 293 T-REx™ cells were transfected with pcDNA™5/FRT/TO plasmid inserted with cDNA encoding Gaussia Luciferase fused to the 3′ end of cDNA encoding PD1 signal sequence plus 10 amino acids (N-[…]-C) (SEQ ID NO: 1). Transfected cells were selected for resistance to the selectable markers Hygromycin and Blasticidin to create a stable cell line that contained the PD1-ss+10aa/Gaussia Luciferase cDNA insert whose expression was regulated under the T-REx™ system. The day before assay, cells were trypsinized and plated in 384-well tissue culture plates. The next day, compound dilutions in DMSO/media containing doxycycline were added to the wells and incubated at 37° C., 5% CO2.
(§1) For chemical structures that include one or more stereoisomers, but are illustrated without indicating stereochemistry, the assay data refers to a mixture of stereoisomers.

In data set [6] the test system is IL-2-FL/Gaussia Luciferase. The data set is described as follows: Dox Induced IL2-FL-Gluc Assay. Particulars: for IC50: 24 hr Dox induction, 293FRT/TO cells, read-out: 24 hr Dox Inducible IL2FLGluc 293FRT/TO: Mean IC50; for 24 hr Dox Inducible IL2FLGluc 293FRT/TO: IL2/PD1: ratio of IL2FLGluc IC50 to PD1ssGluc IC50. The class given is cell-based.
From the text: Flp-In 293 T-REx™ cells were transfected with pcDNA™5/FRT/TO plasmid inserted with cDNA encoding Gaussia Luciferase fused to the 3′ end of cDNA encoding full length IL-2 (amino acids 1-153). Transfected cells were selected for resistance to the selectable markers Hygromycin and Blasticidin to create a stable cell line that contained the IL-2-FL/Gaussia Luciferase cDNA insert whose expression was regulated under the T-REx™ system. The day before assay, cells were trypsinized and plated in 384-well tissue culture plates. The next day, compound dilutions in DMSO/media containing doxycycline were added to the wells and incubated at 37° C., 5% CO2.
as §1

The mark [7] stands for this setting: '<=>' given where both are I.A.

Where two headings read alike, the source gives them in different places. Some results are limits rather than exact numbers.

For the compound `O=C(Nc1nc([C@H]2CCCN2c2ccc(OC3CCNCC3)cc2)cs1)c1cccn1Cc1ccncc1` [Compound A6, (R)-N-(4-(1-(4-(piperidin-4-yloxy)phenyl)pyrrolidin-2-yl)thiazol-2-yl)-1-(pyridin-4-ylmethyl)-1H-pyrrole-2-carboxamide], the “Liver Microsome Stability (Multiple Species): Rat - % Remaining after 30 min w/NADPH” value in data set [1] is reported as 44.8%. The “Liver Microsome Stability (Multiple Species): Mouse - % Remaining after 30 min w/NADPH” value in data set [2] is recorded as 37.4%. For the same compound, the “Liver Microsome Stability (Multiple Species): Human - % Remaining after 30 min w/NADPH” value in data set [3] is recorded as 25.7%. The “Liver Microsome Stability (Multiple Species): Monkey - % Remaining after 30 min w/NADPH” value in data set [4] was 25.4%.
The matching figures for `CCc1ccc(N2CCC[C@@H]2c2csc(NC(=O)c3cccn3Cc3ccncc3)n2)cc1` [Compound A22, (R)-N-(4-(1-(4-ethylphenyl)pyrrolidin-2-yl)thiazol-2-yl)-1-(pyridin-4-ylmethyl)-1H-pyrrole-2-carboxamide]: 11.7%, 15.8%, 29.1% and 17.6%.
On the same counts, the results for `CC(C)c1ccc(N2CCC[C@@H]2c2csc(NC(=O)c3cccn3Cc3ccncc3)n2)cc1` [Compound A23, (R)-N-(4-(1-(4-isopropylphenyl)pyrrolidin-2-yl)thiazol-2-yl)-1-(pyridin-4-ylmethyl)-1H-pyrrole-2-carboxamide] are 40.2%, 25.3%, 24.7% and 29.9%.
For the compound `O=C(Nc1nc([C@H]2CCCN2c2ccc(C3CC3)cc2)cs1)c1cccn1Cc1ccncc1` [Compound A24, (R)-N-(4-(1-(4-cyclopropylphenyl)pyrrolidin-2-yl)thiazol-2-yl)-1-(pyridin-4-ylmethyl)-1H-pyrrole-2-carboxamide], the “Liver Microsome Stability (Multiple Species): Rat - % Remaining after 30 min w/NADPH” value in data set [1] was 35.9%. For the same compound, in data set [2], the “Liver Microsome Stability (Multiple Species): Mouse - % Remaining after 30 min w/NADPH” value is on record as 19.9%. Besides, the “Liver Microsome Stability (Multiple Species): Human - % Remaining after 30 min w/NADPH” value in data set [3] came to 22.4%. The “Liver Microsome Stability (Multiple Species): Monkey - % Remaining after 30 min w/NADPH” value in data set [4] is 22.5%.
As to `Cn1ccnc1/C=C/c1csc(NC(=O)c2cccn2Cc2ccncc2)n1` [Compound B20, (E)-N-(4-(2-(1-methyl-1H-imidazol-2-yl)vinyl)thiazol-2-yl)-1-(pyridin-4-ylmethyl)-1H-pyrrole-2-carboxamide], the IC50 in data set [5] amounted to 5420 nM. Further, in data set [6], the IC50 was > 25000 nM and the “24 hr Dox Inducible IL2FLGluc 293FRT/TO: IL2/PD1” value is given as >4.6.
As for `O=C(Nc1nc([C@H]2CCCN2c2ccccc2)cs1)c1cccn1CCCCc1cnn[nH]1` [Compound C26, (R)-1-(4-(1H-1,2,3-triazol-5-yl)butyl)-N-(4-(1-phenylpyrrolidin-2-yl)thiazol-2-yl)-1H-pyrrole-2-carboxamide], the results for the IC50 in data set [5] (mean) and in data set [6] (mean) were 7970 nM and > 25000 nM, respectively. Further, the “24 hr Dox Inducible IL2FLGluc 293FRT/TO: IL2/PD1” value in data set [6] (setting [7]) is on record as >3.1.
The matching figures for `O=C(Nc1nc([C@H]2CCCN2c2ccccc2)cs1)c1cccn1Cc1ccncc1F` [Compound E27, (R)-1-((3-fluoropyridin-4-yl)methyl)-N-(4-(1-phenylpyrrolidin-2-yl)thiazol-2-yl)-1H-pyrrole-2-carboxamide]: 17.5 nM, 56.8 nM and 3.2.
The matching figures for `CC(C)c1cccc(/C=C/c2csc(NC(=O)c3cccn3Cc3ccncc3)n2)n1` [Compound E55, (E)-N-(4-(2-(6-isopropylpyridin-2-yl)vinyl)thiazol-2-yl)-1-(pyridin-4-ylmethyl)-1H-pyrrole-2-carboxamide]: 315 nM, 2980 nM and 9.5.

These data come from patent US20230286973A1, “PROTEIN SECRETION INHIBITORS” (KEZAR LIFE SCIENCES, priority 2020, published 2023).
